Results from US12473533B2, “Gene targets for T-cell-based immunotherapy” (The Regents of the University of California, priority 2018, dated 2025).

Experiments:
CD8+ T cells = assay: Dose titration of CGS-21680 on T cell proliferation (CFSE); format: cell-based, human; settings: CFSE-labeled CD8+ T cells, two donors
Description: FIG. 12A-E. Screen for Resistance to an Immunosuppressive Signal in Primary T Cells Using SLICE, Related to FIG. 6. Section A: a dose titration of adenosine receptor agonist CGS-21680 for the optimal effects on T cell proliferation inhibition identified 20 μM as sufficiently suppressive. Shown are representative CFSE profiles for varying concentrations of CGS-21680, as labeled at the top of each panel. Data is for CFSE-labeled CD8^+ T cells from two human donors. Section C: Comparison of the overlapping top 25 hits for the two screen conditions (CGS-21680 and vehicle). We noted that while many hits from the vehicle screen also boosted proliferation in the presence of the immunosuppressive adenosine agonist (trending along diagonal), ADORA2A and FAM105A sgRNAs were enriched selectively in the setting of the adenosine agonist. ADORA2A and FAM105A were the only hits in the top 0.1% by LFC in the CGS-21680 treated condition and also in the top 0.1% by LFC difference between the CGS-21680 and the vehicle GW screen conditions. Section D: Paralogs FAM105A and OTULIN (FAM105B) are 40% homologous and are encoded at neighboring sites on chromosome 5. […] A non-synonymous single nucleotide polymorphism (SNP) in FAM105A has been linked to allergic disease by genome wide association studies (Ferreira et al., 2017). […]

primary human T cells = assay: Genome-wide SLICE pooled CRISPR screen: CFSE-sorted proliferation after TCR stimulation; format: cell-based; settings: log2 fold-change of sgRNA, dividing over non-dividing cells; positive hits from GW screen
Description: To take full advantage of this platform, we scaled-up from the targeted pilot screen to genome-wide (GW) scale (Doench et al., 2016), transducing a library of 77,441 sgRNAs (19,114 genes) into T cells from two healthy donors. After confirming successful transduction of these primary human T cells (FIG. 8,A-B), the cells were re-stimulated and then FACS sorted into non-proliferating and highly-proliferating populations based on CFSE levels (FIG. 8C and Experimental Procedures). MAGeCK software (Li et al., 2014) was used to systematically identify genes that are positively or negatively selected in the proliferating population of T cells. Top positive and negative regulators from the pilot screen were confirmed in both biological replicates of the GW screen along with numerous other hits (FIG. 2A, B). To hone the list of top candidates, we performed an independent secondary screen in cells from two additional human blood donors. The results were well correlated between the primary and secondary screens (FIG. 2C). Furthermore, integrated analysis of the two independent screens performed on a total of four human blood donors provided improved power for target discovery, particularly for negative regulators of T cell proliferation (FIG. 8D). To confirm that hits are in fact dependent on TCR stimulation, we performed GW screens with increasing levels of TCR stimulation. […] The observed dose-response confirmed that the majority of the screen hits are dependent on the TCR stimulus and serve to tune resulting proliferative responses. Taken together these screens identified dozens of genetic perturbations that positively and negatively modulate T cell proliferation.
24 hours post stimulation, lentivirus was added directly to cultured T cells at a 1:300 v/v ratio and gently mixed by tilting. Following 24 hours, cells were collected, pelleted, and resuspended in Lonza electroporation buffer P3 (Lonza, Cat #V4XP-3032) at 20e6 cells/100 μl. Next, Cas9 protein (MacroLab, Berkeley, 40 μM stock) was added to cell suspension at 1:10 v/v ratio. Cells were electroporated at 20e6 cells per cuvette using the pulse code EH115 (Lonza, cat #VVPA-1002). The total number of cells for electroporation was scaled as required. Immediately after electroporation, 1 mL of pre-warmed media was added to each cuvette and cuvettes were placed at 37 degrees for 20 minutes. Cells were then transferred to culture vessels in X-Vivo media containing 50 U/ml IL-2 at 1e6 cells/ml in appropriate tissue culture vessels. Cells were expanded every two days, adding fresh media with IL-2 at 50 U/ml and maintaining the cell density at 1e6 cells/ml.
Cultured cells were collected, spun, washed with PBS, and then resuspended at 1-10 million cells/ml in PBS. CFSE (Biolegend, Cat #423801) was prepared per the manufacturer's protocol to make a 5 mM stock solution in DMSO. This stock solution was diluted 1:1000 in PBS for a 5 μM working solution, and then added in a 1:1 v/v ratio to cell suspension. After mixing, cells were incubated for 5 minutes in the dark at room temperature. The stain was then quenched with a volume of media that was at least 5× the stain volume (e.g. 2 ml+10 ml), and incubated for one minute at room temperature in the dark. Cells were then spun down and resuspended in media prior to restimulation.
PBMCs from multiple human healthy human donors were isolated from TRIMA residuals (see methods). TRIMA residuals were purchased from Blood Centers of the Pacific. After CD8 T cells isolation as above (Day 0), cells were rested in X-Vivo media overnight and then stimulated with plate-bound anti-human CD3/CD28 and IL-2 at 50 U/mL the following day (Day 1). 24 hours after stimulation (Day 2), cells were transduced with concentrated lentivirus encoding the pooled sgRNA library (see methods). […] after transduction (Day 3), cells were electroporated with CAS9 protein (methods). […]

CCNC(=O)[C@H]1O[C@@H](n2cnc3c(N)nc(NCCc4ccc(CCC(=O)O)cc4)nc32)[C@H](O)[C@@H]1O [CGS-21680]
concentration sufficiently suppressive of T cell proliferation (CD8+ T cells): 20 µM

CGGCTCAGCTGGTATGACCC (chemistry not given here) [SEQ ID NO: 8, sgRNA targeting CD5]
LFC (~effect magnitude) (primary human T cells): 1.4145

AGGATCGACTTGTGGAACAA (listed as DNA, chemistry not fully specified) [SEQ ID NO: 27, sgRNA targeting RASA2]
LFC (~effect magnitude) (primary human T cells): 0.4134
